{"source": "patent US20190197375A1", "about": "“TRACEABLE METALLIC PRODUCTS AND METALLIC SUPPORT FOR NANOSTORAGE” (9163-0384 QUEBÉC INC., priority 2013, published 2019)", "key": {"[1]": {"test_system": "S. aureus", "assay": "Antibacterial activity of anodized disk impregnated with benzalkonium chloride, deposited 5 min on agar plate lawn", "type": "cell-based", "details": "anodized disk soaked 10 min, FIG. 4", "description": "Anodized and non-anodized aluminum disks were compared for incorporation/storage and recovery/diffusion of a chemical antibacterial compound. Briefly, anodized and non-anodized disks were prepared as described hereinbefore. The disks were then impregnated or not with benzalkonium chloride (an antibacterial) by soaking 10 min at room temperature and rinsed several times with water.\nThe disks were then tested for diffusion of the antimicrobial benzalkonium by measuring their respective antibacterial activity when deposited for 5 min on an agar plate lawn of S. aureus. […] This confirms incorporation and subsequent release of the antibacterial chemical from the anodized porous surface layer."}, "[2]": {"test_system": "S. aureus", "assay": "Long term conservation: antibacterial activity of impregnated anodized aluminum disks after storage", "type": "cell-based", "details": "disks impregnated 4 years ago, 2.12% w/v; deposition 5 min on agar plate lawn", "description": "An experiment was designed to evaluate the presence and integrity of samples stored in the anodized metallic support.\nThe antimicrobial activity was measured by diffusion of the antimicrobial benzalkonium following deposition for 5 min on an agar plate lawn of S. aureus (results not shown)."}}}
{"substance": "benzalkonium chloride", "values": [{"measurement": "Inhibition of bacterial growth by impregnated anodized disk", "setting": "[1]", "value": "successfully inhibited bacterial growth"}, {"measurement": "Antibacterial activity after storage in anodized aluminum disks", "setting": "[2]", "value": "still possible to measure antibacterial activity"}]}
